Results as given in patent publication US11447517B2, “Galactoside inhibitor of galectins” (GALECTO BIOTECH AB, priority 2018, dated 2022).

Key:
[1] = Uptake over CACO-2 cell monolayers; type: in vitro ADME; settings: human; for Papp A→B: apical to basolateral; for Papp B→A: basolateral to apical; for efflux ratio: read-out: Efflux ratio Papp (B > A/A > B)
Source text: Uptake of a drug over the intestine can be predicted measuring the uptake over a monolayer of CACO-2 cells measured as Papp(10^-6 cm/s). […] By introduction of small alkyl substituents to the galactoside 2-OH such as compounds of formula (1) results in low or no efflux combined with a high uptake (Papp >10 10^-6 cm/s) over CACO-2 cells from the apical to the basolateral side of the cells.

galectins = settings: cited from earlier work
galectin-3 = galectin-3 (Homo sapiens (Human), UniProt P17931); test: Fluorescence anisotropy assay, inhibition of galectin / fluorescein tagged saccharide probe interaction; type: binding
Protocol: Evaluation of Kd Values The affinity of Example 1-71 for galectins were determined by a fluorescence anisotropy assay where the compound was used as an inhibitor of the interaction between galectin and a fluorescein tagged saccharide probe as described Sörme, P., Kahl-Knutsson, B., Huflejt, M., Nilsson, U. J., and Leffler H. (2004) Fluorescence polarization as an analytical tool to evaluate galectin-ligand interactions. Anal. Biochem. 334: 36-47, (Sörme et al., 2004) and Monovalent interactions of Galectin-1 By Salomonsson, Emma; Larumbe, Amaia; Tejler, Johan; Tullberg, Erik; Rydberg, Hanna; Sundin, Anders; Khabut, Areej; Frejd, Torbjorn; Lobsanov, Yuri D.; Rini, James M.; et al, From Biochemistry (2010), 49(44), 9518-9532, (Salomonsson et al., 2010). […] 100 nM albumin was included as a carrier to prevent protein loss at such low concentration of galectin.

Sequence of galectin-3 (P17931 whole entry): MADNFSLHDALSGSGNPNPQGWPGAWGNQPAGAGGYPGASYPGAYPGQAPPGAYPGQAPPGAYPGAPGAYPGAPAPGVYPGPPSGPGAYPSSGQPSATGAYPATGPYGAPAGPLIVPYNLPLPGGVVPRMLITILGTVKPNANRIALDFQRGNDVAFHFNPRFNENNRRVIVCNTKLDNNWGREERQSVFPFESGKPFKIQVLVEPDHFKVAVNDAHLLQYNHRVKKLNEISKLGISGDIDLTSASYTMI

Row | Compound | Papp A→B [1] | Papp B→A [1] | efflux ratio [1] | Kd (galectin-3) | Affinity, times lower than lactose (galectins; relative to lactose) | Kd (galectins; Leffler 2001, Leffler et al. 2004, read-out: Kd, all galectins)
1 | N#Cc1ncc(Cl)cc1S[C@H]1OC(CO)[C@H](O)[C@H](n2cc(-c3cc(F)c(Cl)c(F)c3)nn2)C1O (stereo partly shown) | 5 ×10⁻⁶ cm/s | 46 ×10⁻⁶ cm/s | 9 |  |  | 
2 | O=C[C@H](O)[C@@H](O)[C@@H](O)[C@H](O)CO [D-galactose] |  |  |  |  | 50-100 times | 
3 | CCO[C@@H]1[C@@H](n2cc(-c3cc(F)c(F)c(F)c3)nn2)[C@@H](O)[C@@H](CO)O[C@@H]1Sc1cc(Br)ccc1C(=O)N1CCC1 [Example 65, 2-(N-azetidinyl-carbonyl)-5-bromophenyl 3-deoxy-3-[4-(3,4,5-trifluorophenyl)-1H-1,2,3-triazol-1-yl]-2-O-ethyl-1-thio-α-D-galactopyranoside] |  |  |  | 0.018 µM |  | 
4 | CO[C@@H]1[C@@H](n2cc(-c3cc(F)c(F)c(F)c3)nn2)[C@@H](O)[C@@H](CO)O[C@@H]1Sc1cc(Cl)ccc1C(=O)N1CCC1 [Example 70, 2-(N-azetidinyl-carbonyl)-5-chlorophenyl 3-deoxy-3-[4-(3,4,5-trifluorophenyl)-1H-1,2,3-triazol-1-yl]-2-O-methyl-1-thio-α-D-galactopyranoside] |  |  |  | 0.012 µM |  | 
5 | OC[C@H]1O[C@@H](O[C@H]2[C@H](O)[C@@H](O)C(O)O[C@@H]2CO)[C@H](O)[C@@H](O)[C@H]1O (stereo partly shown) [lactose] |  |  |  |  |  | 500 to 1000 µM

Now from value to compound, other results behind:

Row | Papp A→B [1] | Papp B→A [1] | efflux ratio [1] | Kd (galectin-3) | Compound | Affinity, times lower than lactose (galectins; relative to lactose) | Kd (galectins; Leffler 2001, Leffler et al. 2004, read-out: Kd, all galectins)
6 | 3 ×10⁻⁶ cm/s | 30 ×10⁻⁶ cm/s | 10 |  | Cc1ccc(-c2cn([C@@H]3C(O)[C@@H](Sc4cc(Cl)cnc4C#N)OC(CO)[C@@H]3O)nn2)cc1F (stereo partly shown) |  | 
7 | 4 ×10⁻⁶ cm/s | 36 ×10⁻⁶ cm/s | 9 |  | OCC1O[C@H](Sc2cncc(Cl)c2)C(O)[C@@H](n2cc(-c3cc(F)c(F)c(F)c3)nn2)[C@H]1O (stereo partly shown) |  | 
8 | 30 ×10⁻⁶ cm/s | 38 ×10⁻⁶ cm/s | 1.2 | 0.025 µM | CO[C@@H]1[C@@H](n2cc(-c3cc(F)c(F)c(F)c3)nn2)[C@@H](O)[C@@H](CO)O[C@@H]1Sc1cncc(Br)c1 [Example 1, 5-Bromopyridin-3-yl 3-deoxy-3-[4-(3,4,5-trifluorophenyl)-1H-1,2,3-triazol-1-yl]-2-O-methyl-1-thio-α-D-galactopyranoside] |  | 
9 | 18 ×10⁻⁶ cm/s | 23 ×10⁻⁶ cm/s | 1.3 | 0.014 µM | CO[C@@H]1[C@@H](n2cc(-c3ccc(C)c(F)c3)nn2)[C@@H](O)[C@@H](CO)O[C@@H]1Sc1cc(Cl)cnc1C#N [Example 13, 5-Chloro-2-cyanopyridin-3-yl 3-deoxy-3-[4-(3-fluoro-4-methylphenyl)-1H-1,2,3-triazol-1-yl]-2-O-methyl-1-thio-α-D-galactopyranoside] |  | 
10 | 31 ×10⁻⁶ cm/s | 45 ×10⁻⁶ cm/s | 1.4 | 0.045 µM | CO[C@@H]1[C@@H](n2cc(-c3ccc(C)c(F)c3)nn2)[C@@H](O)[C@@H](CO)O[C@@H]1Sc1cncc(Cl)c1 [Example 35, 5-Chloropyridin-3-yl 3-deoxy-3-[4-(3-fluoro-4-methylphenyl)-1H-1,2,3-triazol-1-yl]-2-O-methyl-1-thio-α-D-galactopyranoside] |  | 
11 | 28 ×10⁻⁶ cm/s | 32 ×10⁻⁶ cm/s | 1.1 | 0.026 µM | CO[C@@H]1[C@@H](n2cc(-c3ccc(C)c(F)c3)nn2)[C@@H](O)[C@@H](CO)O[C@@H]1Sc1cncc(Br)c1 [Example 36, 5-Bromopyridin-3-yl 3-deoxy-3-[4-(3-fluoro-4-methylphenyl)-1H-1,2,3-triazol-1-yl]-2-O-methyl-1-thio-α-D-galactopyranoside] |  | 
12 | 26 ×10⁻⁶ cm/s | 34 ×10⁻⁶ cm/s | 1.3 | 0.039 µM | CO[C@@H]1[C@@H](n2cc(-c3ccc(C)c(F)n3)nn2)[C@@H](O)[C@@H](CO)O[C@@H]1Sc1cncc(Cl)c1 [Example 43, 5-Chloropyridin-3-yl 3-deoxy-3-[4-(6-fluoro-5-methylpyridin-2-yl)-1H-1,2,3-triazol-1-yl]-2-O-methyl-1-thio-α-D-galactopyranoside] |  | 
13 |  |  |  | 0.25 µM | CO[C@@H]1[C@@H](n2cc(-c3cc(F)c(Cl)c(F)c3)nn2)[C@@H](O)[C@@H](CO)O[C@@H]1Sc1ccc(Cl)c(Cl)c1 [Example 71, 3,4-Dichlorophenyl 3-[4-(4-chloro-3,5-difluorophenyl)-1H-1,2,3-triazol-1-yl]-3-deoxy-2-O-methyl-1-thio-α-D-galactopyranoside] |  | 
